pIC50: −log10 of the molar value. Values after ≈ are worked out from the molar mass of the structure shown. Where two headings read alike, the source gives them in different places.

The term solubility denotes the concentration that dissolves in the medium under given conditions. Lower therefore signals a poorly soluble substance.

Series [1] addresses PRMT5/MEP50 complex (Homo sapiens (Human), UniProt O14744). Nature of the series: Biochemical assay: PRMT5/MEP50 methylation of histone H2A with 3H-SAM, filter plate scintillation. Put shortly: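 5 nM PRMT5/MEP50 preincubated with compound 15–20 min at room temperature, with 5 μM histone H2A as substrate; reaction started with 1 μM 3H-SAM and run 60 min at 30 °C. TCA-stopped, filter-captured methylation counted by scintillation; IC50 from 4-parameter Hill fit.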

The subject of series [2] is Symmetric Di-Methyl Arginine (sDMA) in Granta-519 cells. The experiment in a line: Western blot for symmetric di-methyl arginine (sDMA) marks in Granta cells, 3 days treatment. It is filed as cell-based. Conditions: Homo sapiens, 3 days. Background: A western blot detects proteins with antibodies after separation by electrophoresis.
The subject of series [3] is Granta-519 cells. The experiment in a line: Cell proliferation assay on Granta-519 cells (CCK-8, day 10). It counts as cell-based. Conditions: Homo sapiens. As to the method: Cell Proliferation Assay to Determine IC50 on Granta-519 Cells
Granta-519 cells were maintained in PRMI 1640 (Corning Cellgro, Catalog #: 10-040-CV) medium supplemented with 10% v/v FBS (GE Healthcare, Catalog #: SH30910.03). Compounds were dissolved in DMSO to make 10 mM stocks and stored at −20° C. Nine-point, 3-fold serial dilutions were made with DMSO with top concentration at 1 mM (working stocks).
On day of experiment, compound working stocks were further diluted at 1:50 with fresh medium in 96 well plate, and 10 μL of diluted drugs were added to a new 96 well plate for proliferation assay. Cells growing at exponential phase were spun down at 1500 rpm for 4 min and resuspend in fresh medium to reach a density of 0.5×10^6 cells/ml. 200 ul of cells were added to 96 well plate containing diluted drugs and incubated for 3 days. DMSO was used a vehicle control.
One day 3, 10 μL of Cell Counting Kit-8 (CCK-8, Jojindo, CK04-13) solution was added to a new 96 well plate. Cells incubated with drugs for 3 days were resuspended by pipetting up and down, and 100 μL of cells were transferred to 96 well plate containing CCK-8 reagent to measure viable cells. Plates were incubated in C02 incubator for 2 hours and OD450 values were measured with a microplate reader (iMark microplate reader, Bio-Rad).
For re-plating, compound working stocks were diluted at 1:50 with fresh medium and 10 μL of diluted drugs were added to anew 96 well plate. Cells from Day 3plate (50 ul) were added to 96 well plate containing fresh drug and additional 150 of fresh medium was added to reach 200 ul volume. Plate was returned to CO2incubator and incubated for 3more days. Viable cells measurement and re-plating were repeated on day 6, and the final viable cells measurement was taken on day 10.
Percentage of viable cells, relative to DMSO vehicle control, were calculated and plotted in Graphpad Prism ([Inhibitor] vs. normalized response-Variable slope) to determine proliferation IC50 values on day 10.

Series [4] in a line: In vivo pharmacokinetic study in rat (i.v. and p.o.). The note with it: for clearance / half-life / Vd / bioavailability: blood; for clearance / half-life / Vd: iv; for half-life: read-out: T1/2 (printed T2) (converted); for Vd: read-out: Vss; for bioavailability: po. As to the method: In Vivo Pharmacokinetic Properties of Example 36.
In a rat (SD, male, non-fasted) non-crossover cassette PK study, Example 36 was dosed at 0.25 mg/kg via i.v. administration (N=3) and 2 mg/kg via oral gauge (p.o.) (N=3) with other 3 compounds.
In Vivo Pharmacokinetic Properties of Example 92.
In a rat (SD, male, non-fasted) non-crossover PK study, Example 92 was dosed at 1 mg/kg (DMA: 20% HPBCD=5:95, solution) via i.v. administration (N=2) and 1 mg/kg (0.5% Na CMC+0.5% Tween80, solution) via oral gauge (p.o.) (N=2).

Series [5] concerns sDMA in Granta-519 tumors. Nature of the series: In vivo pharmacodynamic effect: sDMA levels in tumor samples of Granta-519 mouse xenograft model. As to the method:
(§1) In Vivo Pharmacodynamic Effect of Example 36 in Granta-519 Mouse Xenograft Model.
(§2) Granta-519 cells was maintained in DMEM medium supplemented with 10% fetal bovine serum and 2 mM L-Glutamine at 37° C. in an atmosphere of 5% C02 in air. Cells in exponential growth phase were harvested and 1×10^7 cells in 0.1 mL of PBS with Matrigel (1:1) were injected subcutaneously at the right lower flank region of each mouse for tumor development. The treatments were started when the mean tumor size reaches approximately 300-400 mm^3. […] Example 36 or vehicle (0.5% methylcellulose+0.1% Tween 80) were administered orally (BID for Example 36, QD for vehicle) at a dose of 25 mg/kg for 6 days. Body weights and tumor size were measured thrice weekly after randomization. Animals were euthanized 4 hours after last dosing on day 6, and blood and tumor samples were collected for analysis.
To measure sDMA levels in tumor samples, tumors from each mouse were weighted and homogenized in RIPA buffer supplemented with protease inhibitor (cOmplete™, EDTA-free Protease Inhibitor Cocktail, Roche). […] Total protein concentrations of lysate were determined by BCA assay (ThermoFisher Scientific, Catalog #: 23225). Equal amount of total proteins from each tumor were separated on SDS-PAGE gel, and sDMA levels were determined by WB as described previously. […]

For series [6], the system named is Granta-519 mouse xenograft. The experiment in a line: Tumor growth inhibition and body weight in Granta-519 mouse xenograft model. It counts as in vivo. The note with it: for tumor growth inhibition: N=5. The procedure: as §1, §2
Example 92 or vehicle (0.5% Na CMC+0.5% Tween80, suspension) were administered orally (QD for Example 92, QD for vehicle) at a dose of 50 mg/kg for 14 days. Body weights and tumor size were measured every 3 to 4 days after randomization. Animals were euthanized 4 hours after last dosing, and blood and tumor samples were collected for analysis.

Series [7] in a line: physchem. Conditions: for solubility at 4 h: 25 °C, fassif, thermodynamic from solid. As to the method:
Compounds were first dispersed in freshly prepared FaSSIF (http://biorelevant.com/site_media/upload/documents/How_to_make_FaSSIF_FeSSIF_and_FaSSGF.pdf) buffer in 1 mg/mL respectively, and the standard samples were prepared by preparing 1 mg/mL of test compounds in DMSO. The compounds were then sufficient mixed by vortex mixer for 30 sec, and agitated at 25° C. using 300 rpm form 4 hour in thermo mixer. After incubation, the prepared samples were centrifuged at 10000 rpm for 10 min to remove the undissolved solid, the resulting supernatants were applied to HPLC. The actual concentrations of the compounds were evaluated by measuring the peak area, and the solubility (S) of compounds was calculated according to following equation: S=Csmp=Cstd*(Asmp/Astd)*(Vstd/Vsmp) Where C is the sample concentration in μg/mL, A is the peak area, and V is the injection volume.

[8] abbreviates: histone H2A 5 μM, SAM 1 μM, enzyme 5 nM, read-out: PRMT5/MEP50 IC50.
[9] abbreviates: rat SD male non-fasted, i.v. 1 mg/kg, N=2.
Setting [10] is: rat SD male non-fasted, p.o. 1 mg/kg, N=2.
[11] abbreviates: 240 h, Granta-519 cell line, read-out: Proliferation IC50.
Where [12] appears, read: rat SD male non-fasted, cassette, i.v. 0.25 mg/kg, N=3.

PRMT5/MEP50 complex, sequence (O14744 whole entry): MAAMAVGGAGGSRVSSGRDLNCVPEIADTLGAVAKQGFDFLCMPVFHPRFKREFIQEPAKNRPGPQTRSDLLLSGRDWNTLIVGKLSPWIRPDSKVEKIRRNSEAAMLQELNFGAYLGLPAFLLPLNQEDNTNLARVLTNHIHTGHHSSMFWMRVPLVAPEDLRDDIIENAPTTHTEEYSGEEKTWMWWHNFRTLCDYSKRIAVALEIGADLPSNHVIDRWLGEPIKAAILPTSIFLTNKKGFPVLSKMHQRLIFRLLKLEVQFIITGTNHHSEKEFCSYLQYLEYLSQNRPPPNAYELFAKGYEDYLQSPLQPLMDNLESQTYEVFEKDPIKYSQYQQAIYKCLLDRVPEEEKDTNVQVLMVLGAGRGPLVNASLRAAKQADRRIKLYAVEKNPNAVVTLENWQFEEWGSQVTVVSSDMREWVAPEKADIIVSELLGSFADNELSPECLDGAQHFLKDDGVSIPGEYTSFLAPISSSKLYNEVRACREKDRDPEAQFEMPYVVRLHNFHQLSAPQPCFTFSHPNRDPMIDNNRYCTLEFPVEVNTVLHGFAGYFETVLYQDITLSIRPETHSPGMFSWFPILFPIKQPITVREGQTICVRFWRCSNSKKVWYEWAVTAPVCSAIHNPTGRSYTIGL
PRMT5/MEP50 complex, sequence (Q9BQA1 whole entry partner): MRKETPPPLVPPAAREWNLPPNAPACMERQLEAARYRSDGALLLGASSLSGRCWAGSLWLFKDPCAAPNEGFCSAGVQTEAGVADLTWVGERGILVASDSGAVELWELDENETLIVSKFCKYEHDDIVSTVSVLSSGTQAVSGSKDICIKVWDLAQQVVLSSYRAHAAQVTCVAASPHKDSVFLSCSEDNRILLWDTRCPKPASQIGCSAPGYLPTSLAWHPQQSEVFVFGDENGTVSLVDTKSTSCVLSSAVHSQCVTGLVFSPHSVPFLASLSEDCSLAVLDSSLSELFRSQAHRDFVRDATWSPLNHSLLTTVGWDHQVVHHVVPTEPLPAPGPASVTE

For the compound `C[C@@](O)(c1ccc(Cl)c(Cl)c1)[C@H]1O[C@@H](n2cnc3c(N)ncnc32)[C@H](O)[C@@H]1O` [Example 1-C, (2R,3R,4S,5S)-2-(6-amino-9H-purin-9-yl)-5-((R)-1-(3,4-dichlorophenyl)-1-hydroxyethyl)tetrahydrofuran-3,4-diol], the pIC50 in series [1] (biochemical potency, read-out: PRTMT5/MEP50 IC50) is 8.44; in series [2] (Granta-519, 72 h, Granta cell line), 8.09; in series [3] (Granta-519, 240 h, Granta cell line, read-out: Prolif. IC50), 7.36. Besides, the “metabolite detection in blood samples” value in series [4] (rat, after dosing of Example 92 at 1 mg/kg) is “detected in blood samples”. Further, in series [4] (rat, metabolite after dosing of Example 92 at 1 mg/kg), the AUC0-inf of metabolite stood at 284 ng·kg·h/mL/mg. In addition, the “sDMA in tumor samples” value in series [5] (30 mg/kg, separate experiment) is “no detectable amount of sDMA”. In series [6] (30 mg/kg, separate experiment), this compound came in with a body weight gain of 6%. The same compound came in with a tumor growth inhibition in series [6] (30 mg/kg, separate experiment) of 61%. For the same compound, the “metabolite detection in blood and tumor samples” value in series [6] (mouse xenograft, after Example 92 at 50 mg/kg QD for 14 days) is “detected in all blood and tumor samples”.
Consider `CO/N=c1\[nH]cnc2c1ncn2[C@@H]1O[C@H]([C@](C)(O)c2ccc(Cl)c(Cl)c2)[C@@H](O)[C@H]1O` [Example 92, (2S,3S,4R,5R)-2-[(1R)-1-(3,4-dichlorophenyl)-1-hydroxy-ethyl]-5-[(6Z)-6-methoxyimino-1H-purin-9-yl]tetrahydrofuran-3,4-diol], for which the pIC50 in series [1] (setting [8]) was 5.71. For the same compound, in series [4] (setting [9]), the clearance stood at 11.3 mL/min/kg, the half-life was 1.84 h and the Vd amounted to 1.13 L/kg. In series [4] (setting [10]), the bioavailability was > 100% and the “dose normalized AUC0-inf” value turned out to be 2184 ng·kg·h/mL/mg. For the same compound, the “inhibition of sDMA in tumor samples” value in series [5] (50 mg/kg orally QD for 14 days) is reported as > 90%. In series [6] (50 mg/kg orally QD for 14 days), this compound showed a body weight loss of 1% and a tumor growth inhibition of 74%.
In series [7], `CO/N=c1\[nH]cnc2c1ncn2[C@@H]1O[C@H]([C@](C)(O)c2ccc(Cl)c(Cl)c2)[C@@H](O)[C@H]1O` [Example 92A, (2S,3S,4R,5R)-2-[(1R)-1-(3,4-dichlorophenyl)-1-hydroxy-ethyl]-5-[(6Z)-6-methoxyimino-1H-purin-9-yl]tetrahydrofuran-3,4-diol] had a solubility at 4 h of 54.7 µg/mL (≈ 120 µM).
Take `CC(=O)CC(c1ccccc1)c1c(O)c2ccccc2oc1=O` (stereo not shown) [Warfarin, reference compound]: the “FaSSIF solubility of positive controls” value in series [7] (positive controls in this experiment) fell in the range of 10 to 25 µg/mL.
Regarding `CO/N=c1/nc[nH]c2c1ccn2[C@@H]1O[C@H]([C@H](O)c2ccc(Cl)cc2)[C@@H](O)[C@H]1O` [compound 36, (2R,3S,4R,5R)-2-[(R)-(4-chlorophenyl)-hydroxy-methyl]-5-(-4-methoxyimino-1H-pyrrolo[2,3-d]pyrimidin-7-yl]tetrahydrofuran-3,4-diol], the pIC50 is 4.76 in series [1] (setting [8]); 3.99 in series [2] (72 h, Granta-519 cell line); 6.84 in series [3] (setting [11]). The same compound returned a solubility at 4 h in series [7] of 912 µg/mL (≈ 2240 µM). In series [4] (setting [12]), this compound displayed a clearance of 12.3 mL/min/kg. Besides, the half-life in series [4] (setting [12]) was 1.2 h. In series [4] (setting [12]), the Vd is 1.1 L/kg. Also, in series [4] (rat SD male non-fasted, cassette, p.o. 2 mg/kg, N=3), the bioavailability is > 120%.
For `CO/N=c1\nc[nH]c2c1ccn2[C@@H]1O[C@H]([C@H](O)c2ccc(F)c(F)c2)[C@@H](O)[C@H]1O` [compound 70, 7-((2R,3R,4S,5R)-5-((R)-(3,4-difluorophenyl)(hydroxy)methyl)-3,4-dihydroxytetrahydrofuran-2-yl)-1,7-dihydro-4H-pyrrolo[2,3-d]pyrimidin-4-one O-methyl oxime], the pIC50 in series [1] (setting [8]) is 7.99; in series [2] (72 h, Granta-519 cell line), 7.32; in series [3] (setting [11]) it was 6.89.
